# Literature values, collected in patent US20160318862A1, “SYNTHESIS OF DELTA 12-PGJ3 AND RELATED COMPOUNDS” (WILLIAM MARSH RICE UNIVERSITY, priority 2013, published 2016).
# Where two headings read alike, the source gives them in different places.
# Experiments:
# [1] = molecular target: T1, peroxisome proliferator-activated receptor γ (PPARγ) (Homo sapiens, UniProt P37231)
# T1 sequence (P37231 1-505): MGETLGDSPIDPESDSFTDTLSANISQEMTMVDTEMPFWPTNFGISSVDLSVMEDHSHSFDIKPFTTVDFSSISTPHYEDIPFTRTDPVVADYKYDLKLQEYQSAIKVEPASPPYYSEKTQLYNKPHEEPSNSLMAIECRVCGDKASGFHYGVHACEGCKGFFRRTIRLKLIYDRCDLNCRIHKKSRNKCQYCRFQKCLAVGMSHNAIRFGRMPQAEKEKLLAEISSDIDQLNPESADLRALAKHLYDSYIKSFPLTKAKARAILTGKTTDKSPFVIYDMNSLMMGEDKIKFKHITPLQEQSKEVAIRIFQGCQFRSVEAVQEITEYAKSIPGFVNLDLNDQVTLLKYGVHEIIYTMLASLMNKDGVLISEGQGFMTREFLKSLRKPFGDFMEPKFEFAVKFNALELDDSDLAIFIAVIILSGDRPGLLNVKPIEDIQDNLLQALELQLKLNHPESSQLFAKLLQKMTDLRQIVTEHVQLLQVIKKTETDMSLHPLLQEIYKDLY
# [2] = system: normal hematopoietic stem cells
# [3] = system: NF-κB-mediated transcription
# [4] = system: tumor cells; conditions: incorporating into tumor cells and transferring into nuclei
# [5] = system: gadd45 promoter
# [6] = system: topoisomerase
# [7] = system: mice infected with Friend erythroleukemia virus or those expressing chronic myelogenous leukemia (CML) oncoprotein BCR-abl in the hematopoietic stem cell (HSC) …
# [8] = system: leukemia stem cells (LSCs)
# [9] = system: AML LSCs; conditions: murine models of AML; reported in U.S. Patent Publication 2013/0005737
# [10] = system: AML LSCs; conditions: human AML leukemia samples; reported in U.S. Patent Publication 2013/0005737
# [11] = system: p53; conditions: LSCs and leukemia cells
smiles,measurement,setting,value
"CCCCC/C=C/C=C1/C(=O)C=C[C@@H]1C/C=C\CCCC(=O)O [15-deoxy-Δ^12,14-PGJ2]",ligand potency for PPARγ,[1],most potent natural ligand reported to date
CC/C=C\C[C@H](O)/C=C/[C@H]1C(=O)C=C[C@@H]1C/C=C\CCCC(=O)O [PGJ3],effect on normal hematopoietic stem cells or the differentiation of hematopoietic progenitors,[2],no effect
"O=C(O)CCCC=CCC1C=CC(=O)C1=CCC(O)CC=CCC(F)(F)F (stereo not shown) [compound 3, ω-Trifluoromethyl-Δ^12-PGJ3]",NF-κB-mediated transcription,[3],Inhibition of the NF-κB-mediated transcription
CCCCC[C@H](O)C/C=C1/C(=O)C=C[C@@H]1C/C=C\CCCC(=O)O [Δ^12-PGJ2],antitumor effects,[4],strong antitumor effects
same,gadd45 promoter activity,[5],activating the gadd45 promoter independently of p53
same,topoisomerase activity,[6],inhibiting topoisomerase
CC/C=C\C[C@H](O)C/C=C1/C(=O)C=C[C@@H]1C/C=C\CCCC(=O)O [Δ^12-PGJ3],"hematological parameters, splenic histology and survival",[7]; intraperitoneal administration,"completely restored normal hematological parameters, splenic histology, and enhanced the survival"
same,development of leukemia,[7]; two murine models of leukemia,alleviates the development of leukemia
same,eradication of LSCs,"[8]; in vivo, donor cells from treated mice unable to cause leukemia in secondary transplants",completely eradicated LSCs in vivo
same,apoptosis of leukemia stem cells,[8]; mice spleen and bone marrow,selectively targets and induces apoptosis of leukemia stem cells
same,targeting of AML LSCs by inducing apoptosis,[9],effectively target AML LSCs by inducing apoptosis
same,targeting of AML LSCs by inducing apoptosis,[10],effectively target AML LSCs by inducing apoptosis
same,expression of p53,[11],inducing the expression of p53
